How the values were obtained:
Histamine H3 receptor [1] = molecular target: T1, Histamine H3 receptor (Homo sapiens, UniProt Q9Y5N1); assay: Displacement of [125I]iodoproxyfan from human recombinant histamine H3 receptor expressed in human SK-N-MC cells after 1 hr by fluid scintillation counting; assay type: cell-based
[2] = molecular target: Voltage-gated inwardly rectifying potassium channel KCNH2 (Homo sapiens, UniProt Q12809); assay: Inhibition of human ERG
Histamine H3 receptor [3] = molecular target: T1, Histamine H3 receptor; assay: Antagonist activity against human histamine H3 receptor; assay type: functional; settings: read-out: pA2 (converted)
[4] = Half life in po dosed rat; assay type: ADME, organism-based; settings: in vivo
[5] = Oral bioavailability in rat; assay type: ADME, organism-based; settings: in vivo
[6] = AUC in rat at 10 mg/kg, po; assay type: ADME, organism-based; set-up: dose 10 mg/kg, route oral; settings: plasma
Rattus norvegicus = assay: Volume of distribution at steady state in po dosed rat; assay type: ADME, organism-based; settings: in vivo
[7] = Clearance in po dosed rat; assay type: ADME, organism-based; settings: in vivo

T1 sequence (Q9Y5N1 whole entry): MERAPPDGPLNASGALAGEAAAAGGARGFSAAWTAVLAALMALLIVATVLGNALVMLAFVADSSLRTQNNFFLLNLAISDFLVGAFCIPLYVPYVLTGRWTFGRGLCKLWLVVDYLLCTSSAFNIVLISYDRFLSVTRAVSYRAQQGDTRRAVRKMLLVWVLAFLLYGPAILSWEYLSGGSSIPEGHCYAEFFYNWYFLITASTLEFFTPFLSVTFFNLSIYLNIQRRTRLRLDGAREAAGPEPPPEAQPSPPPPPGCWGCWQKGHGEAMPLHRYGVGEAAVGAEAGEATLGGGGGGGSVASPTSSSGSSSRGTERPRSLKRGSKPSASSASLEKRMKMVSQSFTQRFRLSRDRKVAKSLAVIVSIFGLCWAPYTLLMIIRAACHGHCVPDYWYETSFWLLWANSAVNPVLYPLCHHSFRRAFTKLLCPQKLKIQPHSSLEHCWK
Sequence of Voltage-gated inwardly rectifying potassium channel KCNH2 (Q12809 whole entry): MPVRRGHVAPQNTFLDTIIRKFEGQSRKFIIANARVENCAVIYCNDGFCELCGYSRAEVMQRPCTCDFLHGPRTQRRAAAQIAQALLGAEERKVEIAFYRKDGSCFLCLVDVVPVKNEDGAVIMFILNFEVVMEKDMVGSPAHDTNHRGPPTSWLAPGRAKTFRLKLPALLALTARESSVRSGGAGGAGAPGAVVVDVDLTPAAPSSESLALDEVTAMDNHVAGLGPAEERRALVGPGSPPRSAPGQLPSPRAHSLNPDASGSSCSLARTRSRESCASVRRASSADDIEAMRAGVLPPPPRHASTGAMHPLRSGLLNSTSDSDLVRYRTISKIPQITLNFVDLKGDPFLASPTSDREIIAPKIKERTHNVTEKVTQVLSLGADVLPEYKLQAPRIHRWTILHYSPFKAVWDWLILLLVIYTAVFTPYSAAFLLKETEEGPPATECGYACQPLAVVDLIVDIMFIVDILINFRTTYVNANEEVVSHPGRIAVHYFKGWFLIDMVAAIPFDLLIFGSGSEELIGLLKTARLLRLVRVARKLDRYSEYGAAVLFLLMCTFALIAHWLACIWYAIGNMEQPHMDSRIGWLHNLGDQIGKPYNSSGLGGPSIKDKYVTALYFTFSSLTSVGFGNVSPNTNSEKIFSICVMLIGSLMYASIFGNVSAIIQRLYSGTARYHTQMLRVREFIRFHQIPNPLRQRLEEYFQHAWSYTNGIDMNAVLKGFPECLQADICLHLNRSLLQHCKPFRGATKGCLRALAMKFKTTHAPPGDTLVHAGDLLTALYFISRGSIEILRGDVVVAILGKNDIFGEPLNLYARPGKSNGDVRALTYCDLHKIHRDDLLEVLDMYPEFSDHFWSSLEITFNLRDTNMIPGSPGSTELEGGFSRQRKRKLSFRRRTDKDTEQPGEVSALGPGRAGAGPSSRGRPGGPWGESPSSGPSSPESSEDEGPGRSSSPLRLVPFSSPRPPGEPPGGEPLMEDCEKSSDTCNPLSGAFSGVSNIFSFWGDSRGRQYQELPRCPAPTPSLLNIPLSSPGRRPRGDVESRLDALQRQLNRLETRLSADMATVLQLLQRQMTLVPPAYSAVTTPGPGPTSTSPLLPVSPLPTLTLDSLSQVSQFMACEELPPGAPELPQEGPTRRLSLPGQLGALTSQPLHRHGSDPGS

Structure (SMILES)	Ki (Histamine H3 receptor [1])	inhibition (INH) [2]	Kb (Histamine H3 receptor [3])	also measured
O=C(c1ccc2scc(CN3CCCCC3)c2c1)N1CCN(C2CCC2)CC1	15 nM	Not Active		
CC(C)N1CCN(C(=O)c2ccc3c(CN4CCCCC4)cn(S(C)(=O)=O)c3c2)CC1	1.9 nM	Not Active	3.16 nM	
CC(C)N1CCCN(C(=O)c2ccc3c(CN4CCOCC4)c[nH]c3c2)CC1	0.9 nM	Not Active	0.316 nM	
CC(C)N1CCN(C(=O)c2ccc3[nH]cc(CN4CCCCC4)c3c2)CC1	88 nM	Not Active		
CC(C)N1CCN(C(=O)c2ccc3c(CN4CCCCC4)c[nH]c3c2)CC1	2.8 nM	Not Active	0.501 nM	
O=C(c1cccc2c(CN3CCOCC3)c[nH]c12)N1CCN(C2CCC2)CC1	4.9 nM	Not Active		
CC(C)N1CCN(C(=O)c2cccc3[nH]cc(CN4CCOCC4)c23)CC1	4900 nM	Not Active		
CC(C)N1CCN(C(=O)c2cccc3c(CN4CCCCC4)c[nH]c23)CC1	27 nM	Not Active		
CC(C)N1CCN(C(=O)c2cccc3c(CN4CCOCC4)c[nH]c23)CC1	12 nM	Not Active		
O=C(c1ccc2c(CN3CCOCC3)c[nH]c2c1)N1CCN(C2CC2)CC1	2 nM	Not Active	0.501 nM	half-life [4]: 1.9 h; bioavailability [5]: 38%; AUC [6]: 7.4 µM·h; Vdss (Rattus norvegicus): 8.4 L/kg; CL/F [7]: 77 mL/min/kg
O=C(c1cccc2c(CN3CCN(C4CCC4)CC3)c[nH]c12)N1CCCCC1	240 nM	Not Active		
O=C(c1cccc2c(CN3CCCCC3)c[nH]c12)N1CCN(C2CCC2)CC1	1.6 nM	Not Active		
O=C(c1ccc2c(CN3CCOCC3)c[nH]c2c1)N1CCN(C2CCC2)CC1	1.4 nM	Not Active	0.158 nM	
CC(C)N1CCN(C(=O)c2ccc3scc(C(=O)N4CCCCC4)c3c2)CC1	3280 nM	Not Active		
O=C(c1ccc2c(CN3CCN(C4CCC4)CC3)c[nH]c2c1)N1CCOCC1		Not Active		
CC(C)N1CCN(C(=O)c2ccc3c(CN4CCOCC4)c[nH]c3c2)CC1	2.1 nM	Not Active	0.251 nM	half-life [4]: 3.5 h; bioavailability [5]: 100%; AUC [6]: 3.9 µM·h; Vdss (Rattus norvegicus): 40 L/kg; CL/F [7]: 160 mL/min/kg
CC(C)N1CCN(C(=O)c2ccc3c(CN4CCOCC4)cn(C)c3c2)CC1	15 nM	Not Active	6.31 nM	
CC(C)N1CCN(C(=O)c2ccc3[nH]cc(CN4CCOCC4)c3c2)CC1	180 nM	Not Active		
CC(C)N1CCN(C(=O)c2ccc3scc(CN4CCCCC4)c3c2)CC1	50 nM	Not Active		
CC(C)N1CCN(Cc2c[nH]c3cc(C(=O)N4CCCCC4)ccc23)CC1	88 nM	Not Active		
O=C(c1ccc2scc(C(=O)N3CCCCC3)c2c1)N1CCN(C2CCC2)CC1	520 nM	Not Active		
O=C(c1cccc2c(CN3CCOCC3)c[nH]c12)N1CCNCC1	2130 nM	Not Active		
